The text below walks through data of ChEMBL document CHEMBL3407376, “Identification of novel class of falcipain-2 inhibitors as potential antimalarial agents” (Bioorg Med Chem, 2015).

One data set has as its system CHO. The data set is described as follows: Cytotoxicity against CHO cells after 24 hrs by WST-1 assay. It counts as cell-based. Conditions: Cricetulus griseus.
The target of the next data set is T1, Falcipain 2 (Plasmodium falciparum, UniProt Q9N6S8).
T1 sequence (Q9N6S8 whole entry): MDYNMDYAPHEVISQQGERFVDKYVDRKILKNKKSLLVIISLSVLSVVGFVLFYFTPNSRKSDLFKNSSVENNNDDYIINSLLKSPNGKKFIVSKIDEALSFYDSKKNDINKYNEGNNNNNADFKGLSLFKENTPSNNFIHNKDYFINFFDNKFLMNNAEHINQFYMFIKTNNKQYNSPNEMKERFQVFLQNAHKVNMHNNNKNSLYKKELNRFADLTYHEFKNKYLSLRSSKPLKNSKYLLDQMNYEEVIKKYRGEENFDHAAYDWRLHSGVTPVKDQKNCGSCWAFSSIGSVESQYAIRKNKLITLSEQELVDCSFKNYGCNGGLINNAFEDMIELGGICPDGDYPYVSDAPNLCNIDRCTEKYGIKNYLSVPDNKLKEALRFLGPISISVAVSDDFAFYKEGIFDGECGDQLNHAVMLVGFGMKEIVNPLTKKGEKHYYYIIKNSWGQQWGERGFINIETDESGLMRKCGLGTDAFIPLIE
The data set can be described thus: Inhibition of Plasmodium falciparum recombinant falcipain-2 using ZFR-AMC as substrate after 30 mins by fluorometric assay.

Data set [1] has as its system Plasmodium falciparum. The data set can be described thus: Antimalarial activity against Plasmodium falciparum 3D7 infected in human erythrocytes after 48 hrs by SYBR green assay. It counts as functional, organism-based.
Data set [2] deals with Plasmodium falciparum. The data set is described as follows: Antimalarial activity against asexual stage Plasmodium falciparum assessed as abnormal parasites after 60 hrs relative to control. The class given is functional, organism-based.
Data set [3] has as its system Plasmodium falciparum. The data set is described as follows: Antimalarial activity against Plasmodium falciparum isolate MCamp infected in human erythrocytes after 48 hrs by SYBR green assay. The class given is functional, organism-based.
The test system of data set [4] is Plasmodium falciparum. The data set can be described thus: Selectivity ratio of EC50 for Plasmodium falciparum 3D7 to EC50 for Plasmodium falciparum Dd2. It counts as functional.
The subject of data set [5] is Plasmodium falciparum. The data set is described as follows: Antimalarial activity against asexual stage Plasmodium falciparum assessed as growth arrest at trophozoite stage after 32 to 60 hrs relative to control. It counts as functional, organism-based.
Data set [6] has as its system Plasmodium falciparum. The data set is described as follows: Antimalarial activity against Plasmodium falciparum Dd2 infected in human erythrocytes after 48 hrs by SYBR green assay. It counts as functional. To be noted: Dd2, 48 h.
Data set [7] has as its system Plasmodium falciparum. The data set is described as follows: Selectivity ratio of EC50 for Plasmodium falciparum Dd2 to EC50 for Plasmodium falciparum 3D7. It counts as functional.
In data set [8] the test system is Plasmodium falciparum. The data set can be described thus: Selectivity ratio of EC50 for Plasmodium falciparum isolate MCamp to EC50 for Plasmodium falciparum 3D7. The class given is functional.
The nature of data set [9]: Selectivity ratio of IC50 for CHO cells to IC50 for Plasmodium falciparum. The class given is ADME, cell-based. Conditions: hamster, read-out: Ratio IC50.
The subject of data set [10] is Plasmodium falciparum. The data set is described as follows: Antimalarial activity against asexual stage Plasmodium falciparum assessed as morphological abnormalities after 32 to 46 hrs relative to control. The class given is functional, organism-based.
For data set [11], the system named is Plasmodium falciparum. The data set is described as follows: Antimalarial activity against asexual stage Plasmodium falciparum assessed as abnormal food vacuole after 32 to 46 hrs relative to control. The class given is functional, organism-based.
[12] abbreviates: Plasmodium falciparum, 3D7, 48 h, read-out: IC50.

Activity calls are given as the source filed them. No cut-off for these calls is given here.

Usually IC50 stands for the concentration that inhibits the measured activity by half. The Ki is the equilibrium dissociation constant of an inhibitor or competing ligand from its target. Usually EC50 stands for the midpoint of the concentration-response curve. A lower EC50 goes with higher potency in that assay.

On to `COC(=O)C1CCN(CC(=O)N[C@@H](CC(C)C)C(=O)N[C@@H](CC(C)C)C(=O)N[C@@H](Cc2c[nH]c3ccccc23)C(=O)N2CCC[C@H]2COc2ccc(F)cc2)CC1`, for which the concentration for half-maximal inhibition (IC50) was > 500 µM in the data set with CHO and 6.7 µM with Plasmodium falciparum [1] (setting [12]). Besides, the Ki on Falcipain 2 turned out to be 4.6 µM.

Regarding `CC(C)C[C@H](NC(=O)N1CCOCC1)c1nc(C(=O)N[C@@H](Cc2ccccc2)C(=O)N2CCC[C@H]2COc2ccc(F)cc2)co1`, the inhibitory constant (Ki) at Falcipain 2 was 8.6 µM. Moreover, the concentration for half-maximal inhibition (IC50) entry in the data set on Plasmodium falciparum [1] was “Not Active”.

Turning to `CC(C)C[C@H](NC(=O)[C@H](CC(C)C)NC(=O)N1CCCCC1)C(=O)N[C@H](C(=O)N1CCN=C1COc1ccc(F)cc1)c1ccccc1`, the result in the data set on Plasmodium falciparum [2] and in the data set on Plasmodium falciparum [5] was Active. The concentration for a half-maximal effect (EC50) with Plasmodium falciparum [3] worked out at 1.2 µM; in the data set on Plasmodium falciparum [6], 1.9 µM. The “Ratio EC50” value in the data set with Plasmodium falciparum [4] turned out to be 3. The inhibition constant Ki at Falcipain 2 turned out to be 0.8 µM. Besides, in the data set on Plasmodium falciparum [1] (setting [12]), the IC50 amounted to 5.2 µM.

In the case of `CC(C)C[C@H](NC(=O)CN1CCC(CCO)CC1)C(=O)N[C@@H](CC(C)C)C(=O)N[C@@H](Cc1c[nH]c2ccccc12)C(=O)N1CCC[C@H]1COc1ccc(F)cc1`, the Ki at Falcipain 2 stood at 3.29 µM. Besides, the IC50 in the data set with Plasmodium falciparum [1] (setting [12]) was 6.7 µM.

Consider `CC(C)C[C@H](NC(=O)[C@H](CC(C)C)NC(=O)N1CCCCC1)C(=O)N[C@@H](Cc1ccccc1)C(=O)NNc1ccccc1`, for which the figures for the 50% inhibitory concentration (IC50) in the data set on CHO and in the data set on Plasmodium falciparum [1] (setting [12]) were 99 µM and 14.2 µM, respectively. In addition, at Falcipain 2, the inhibition constant (Ki) is 0.8 µM.

Turning to `CC(C)C[C@H](NC(=O)[C@H](CC(C)C)NC(=O)N1CCOCC1)C(=O)N[C@@H](Cc1c[nH]c2ccccc12)C(=O)N1CCC[C@H]1COc1ccc(F)cc1`, the Ki at Falcipain 2 was 0.4 µM. The IC50 with Plasmodium falciparum [1] (setting [12]) stood at 10 µM.

As to `CC(C)C[C@H](NC(=O)CN1CCC(CCO)CC1)C(=O)N[C@@H](CC(C)C)C(=O)N[C@@H](Cc1c[nH]c2ccccc12)C(=O)N1CCN=C1COc1ccc(F)cc1`, on Falcipain 2, the inhibition constant Ki stood at 6.2 µM. The IC50 with Plasmodium falciparum [1] (setting [12]) was 18.8 µM.

For the compound `CC(C)C[C@H](NC(=O)[C@H](CC(C)C)NC(=O)N1CCOCC1)C(=O)N[C@H](C(=O)N1CCC[C@H]1COc1ccc(F)cc1)c1ccccc1`, the outcome with Plasmodium falciparum [2] and with Plasmodium falciparum [5] was Active. Moreover, the “Ratio EC50” value in the data set on Plasmodium falciparum [7] and with Plasmodium falciparum [8] was 8 throughout. Further, the 50% effective concentration (EC50) with Plasmodium falciparum [3] is 12.1 µM; in the data set with Plasmodium falciparum [6], 7.5 µM. The half-maximal inhibitory concentration (IC50) is 168 µM in the data set with CHO and 0.9 µM in the data set with Plasmodium falciparum [1] (setting [12]). The inhibition constant (Ki) on Falcipain 2 turned out to be 1.1 µM. Besides, in [9], the selectivity ratio amounted to 150.

Take `CC(C)C[C@H](NC(=O)[C@H](CC(C)C)NC(=O)N1CCOCC1)C(=O)N[C@H](C(=O)N1CCN=C1COc1ccc(F)cc1)c1ccccc1`: on Falcipain 2, the Ki is 7 µM. Further, the half-inhibitory concentration (IC50) in the data set on Plasmodium falciparum [1] (setting [12]) was > 5 µM.

Regarding `COc1ccc(OC[C@@H]2CCCN2C(=O)[C@H](Cc2ccccc2)NC(=O)[C@H](CC(C)C)NC(=O)[C@H](CC(C)C)NC(=O)N2CCCCC2)cc1`, the IC50 was determined as 40 µM in the data set on CHO and 35.7 µM in the data set with Plasmodium falciparum [1] (setting [12]). Besides, on Falcipain 2, the Ki amounted to 0.3 µM.

Consider `CC(C)C[C@H](NC(=O)CN1CCC(CCO)CC1)C(=O)N[C@@H](CC(C)C)C(=O)N[C@H](C(=O)N1CCC[C@H]1COc1ccc(F)cc1)c1ccccc1`, for which the inhibition constant (Ki) on Falcipain 2 is > 10 µM. For the same compound, the IC50 result in the data set on Plasmodium falciparum [1] is reported as “Not Active”.

`CC(C)C[C@H](NC(=O)CN1CCN(C)CC1)C(=O)N[C@@H](CC(C)C)C(=O)N[C@@H](Cc1c[nH]c2ccccc12)C(=O)N1CCN=C1COc1ccc(F)cc1`: at Falcipain 2, the Ki came out at 10.6 µM. Further, the IC50 in the data set on Plasmodium falciparum [1] (setting [12]) was 17.5 µM.

On to `CC(C)C[C@H](NC(=O)[C@H](CC(C)C)NC(=O)N1CCOCC1)C(=O)N[C@@H](Cc1ccccc1)C(=O)N1CCC[C@H]1COc1ccc(F)cc1`, for which the concentration for half-maximal inhibition (IC50) in the data set with CHO came to 53 µM; in the data set with Plasmodium falciparum [1] (setting [12]), 10.2 µM. Moreover, on Falcipain 2, the Ki worked out at 0.3 µM.

`CC(C)C[C@H](NC(=O)[C@H](CC(C)C)NC(=O)N1CCCCC1)C(=O)N[C@H](C(=O)N1CCC[C@H]1COc1ccc(F)cc1)c1ccccc1`: the inhibition constant Ki at Falcipain 2 is 1.3 µM. Besides, the IC50 entry in the data set on Plasmodium falciparum [1] is “Not Active”.

With `CC(C)C[C@H](NC(=O)CN1CCC(O)CC1)C(=O)N[C@@H](CC(C)C)C(=O)N[C@@H](Cc1c[nH]c2ccccc12)C(=O)N1CCN=C1COc1ccc(F)cc1`, at Falcipain 2, the inhibitory constant (Ki) came to 13.6 µM. Also, in the data set on Plasmodium falciparum [1] (setting [12]), the IC50 came out at 10 µM.

For the compound `CC(C)C[C@H](NC(=O)[C@H](CC(C)C)NC(=O)N1CCCCC1)C(=O)N[C@@H](Cc1c[nH]c2ccccc12)C(=O)N1CCN=C1COc1ccc(F)cc1`, the result with Plasmodium falciparum [10], with Plasmodium falciparum [2], in the data set with Plasmodium falciparum [11] and in the data set on Plasmodium falciparum [5] was Active. For the same compound, the EC50 is 6.6 µM in the data set with Plasmodium falciparum [3] and 1.7 µM with Plasmodium falciparum [6]. Moreover, the half-inhibitory concentration (IC50) in the data set on CHO is > 468 µM; in the data set with Plasmodium falciparum [1] (setting [12]), 5.5 µM. Further, in the data set with Plasmodium falciparum [4], the “Ratio EC50” value is recorded as 3. The Ki at Falcipain 2 was determined as 0.2 µM.

Turning to `CC(C)C[C@H](NC(=O)CN1CCC(O)CC1)C(=O)N[C@@H](CC(C)C)C(=O)N[C@@H](Cc1c[nH]c2ccccc12)C(=O)N1CCC[C@H]1COc1ccc(F)cc1`, the Ki at Falcipain 2 is 2.53 µM. Also, in the data set on Plasmodium falciparum [1] (setting [12]), the IC50 was determined as 16.7 µM.

For the compound `CC(C)C[C@H](NC(=O)[C@H](CC(C)C)NC(=O)N1CCOCC1)C(=O)N[C@@H](Cc1c[nH]c2ccccc12)C(=O)N1CCN=C1COc1ccc(F)cc1`, the inhibitory constant (Ki) on Falcipain 2 is 1.8 µM. Besides, the IC50 in the data set on Plasmodium falciparum [1] (setting [12]) was > 5 µM.

For the compound `CC(C)C[C@H](NC(=O)CN1CCN(C)CC1)C(=O)N[C@@H](CC(C)C)C(=O)N[C@@H](Cc1c[nH]c2ccccc12)C(=O)N1CCC[C@H]1COc1ccc(F)cc1`, the inhibitory constant (Ki) at Falcipain 2 is 7.49 µM. Moreover, the IC50 result with Plasmodium falciparum [1] is “Not Active”.

On to `CC(C)C[C@H](NC(=O)c1ccco1)C(=O)N[C@@H](CC(C)C)C(=O)N[C@@H](Cc1ccccc1)C(=O)NNc1ccccc1`, for which the IC50 was 114 µM in the data set with CHO and 27.9 µM in the data set on Plasmodium falciparum [1] (setting [12]). The inhibitory constant (Ki) at Falcipain 2 stood at 0.6 µM.

With `CC(C)C[C@H](NC(=O)[C@H](CC(C)C)NC(=O)N1CCCCC1)C(=O)N[C@@H](Cc1c[nH]c2ccccc12)C(=O)N1CCC[C@H]1COc1ccc(F)cc1`, the Ki at Falcipain 2 was found to be 0.4 µM. For the same compound, the concentration for half-maximal inhibition (IC50) in the data set on Plasmodium falciparum [1] (setting [12]) was found to be 9.7 µM.

As to `COC(=O)C1CCN(CC(=O)N[C@@H](CC(C)C)C(=O)N[C@@H](CC(C)C)C(=O)N[C@H](C(=O)N2CCC[C@H]2COc2ccc(F)cc2)c2ccccc2)CC1`, the Ki on Falcipain 2 was > 100 µM. Besides, the IC50 result with Plasmodium falciparum [1] is on record as “Not Active”.

Turning to `CC(C)C[C@H](NC(=O)CN1CCN(C)CC1)C(=O)N[C@@H](CC(C)C)C(=O)N[C@H](C(=O)N1CCC[C@H]1COc1ccc(F)cc1)c1ccccc1`, the Ki on Falcipain 2 is > 10 µM. The 50% inhibitory concentration (IC50) entry in the data set on Plasmodium falciparum [1] was “Not Active”.
